Consider three compounds from ChEMBL document CHEMBL1201862, “PubChem BioAssay data set” (2004).

Among the test systems are SF-539; OVCAR-3; SK-MEL-2; HOP-92; U-251; OVCAR-8; Hs-578T; NCI-H522; PC-3; KM12; HOP-62; HL-60; UACC-62; M14; SR; NCI-H460; COLO 205; SNB-19; CCRF-CEM; SNB-75.
What all share (test): inhibition of tumour cell growth, NCI panel, 48 h

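96-well plates; 48 h exposure; 5 concentrations. Endpoints by linear interpolation between flanking doses. Not reached: highest tested concentration assigned. Here, GI50 denotes the concentration required for 50% inhibition of growth.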 Activity calls are given as the source filed them. Cut-off read from the data, not from the text of the source: active = GI50 up to about 1.1 µM and inactive = higher. Where only a bound is given, the exact number is not on record here.

As to `O=C(O)c1nc2ccccc2nc1Nc1ccc(F)cc1`, the GI50 with SF-539 was 23.5 µM (inactive); in the assay on OVCAR-3, 15.3 µM (inactive); in the assay on SK-MEL-2, 26.9 µM (inactive); with HOP-92, 27.1 µM (inactive); with U-251 it was 37.7 µM (inactive); with OVCAR-8, 38.9 µM (inactive). The GI50 in the assay on Hs-578T was 29.2 µM (inactive); in the assay with NCI-H522, 25.1 µM (inactive); in the assay with PC-3, 27.9 µM (inactive); with KM12, 41.6 µM (inactive); in the assay with HOP-62, 30.4 µM (inactive); with HL-60, 25.7 µM (inactive). In addition, the GI50 in the assay with UACC-62 is 27.2 µM (inactive); with M14, 25.5 µM (inactive); with SR, 32.7 µM (inactive); with NCI-H460 it was 34 µM (inactive); in the assay with COLO 205 it was 29.5 µM (inactive); in the assay with SNB-19, 30.8 µM (inactive). The GI50 in the assay on CCRF-CEM is 29.8 µM (inactive); in the assay on SNB-75 it was 24.8 µM (inactive).

With `C=C1C(=O)OC2CC3(C)OC3CC/C(C)=C/C(OC(C)=O)C12` (stereo not given), the GI50 in the assay on SF-539 is 6.37 µM (inactive); in the assay with OVCAR-3 it was 10.5 µM (inactive); in the assay with SK-MEL-2, 15.5 µM (inactive); with HOP-92 it was 1.82 µM (inactive); with U-251, 18.6 µM (inactive); in the assay on OVCAR-8, 4.71 µM (inactive). Further, the GI50 was 13.2 µM (inactive) in the assay on Hs-578T; 1.04 µM (active) with NCI-H522; 13.2 µM (inactive) in the assay with PC-3; 15.1 µM (inactive) in the assay on KM12; 18.7 µM (inactive) in the assay with HOP-62; 1.41 µM (inactive) in the assay on HL-60. For the same compound, the GI50 in the assay with UACC-62 is 9.89 µM (inactive); in the assay on M14, 3.32 µM (inactive); in the assay on SR, 3.07 µM (inactive); in the assay with NCI-H460, 15.4 µM (inactive); in the assay on COLO 205, 1.75 µM (inactive); in the assay on SNB-19, 18.3 µM (inactive). The GI50 with CCRF-CEM is 2.12 µM (inactive); with SNB-75 it was 8.77 µM (inactive).

On to `O=C(O)c1ccc(Nc2nc3ccc(C(F)(F)F)cc3nc2C(=O)O)cc1`, for which the GI50 in the assay on SF-539, in the assay with OVCAR-3, in the assay on SK-MEL-2, in the assay on HOP-92, with U-251 and with OVCAR-8 was > 100 µM (inactive) throughout. The GI50 in the assay with Hs-578T, with NCI-H522, in the assay on PC-3, with KM12, in the assay on HOP-62 and in the assay on HL-60 was > 100 µM (inactive) in each case. Also, the GI50 in the assay with UACC-62, in the assay on M14, in the assay with SR, in the assay with NCI-H460, in the assay with COLO 205 and with SNB-19 was > 100 µM (inactive) throughout. Moreover, the GI50 in the assay with CCRF-CEM and with SNB-75 was > 100 µM (inactive) throughout.
